Calls of active or inactive are those of the source. The calls are words filed in the database; no cut-off is given here.
Assays:
HeLa [1] = experiment: Induction of apoptosis in human HeLa cells assessed as necrotic cells at 1.25 uM after 48 hrs by annexin-V-FITC/propidium iodide staining based flow cytometry (reference value: 0.693%); type: functional
HeLa [2] = experiment: Induction of apoptosis in human HeLa cells assessed as early apoptotic cells at 5 uM after 48 hrs by annexin-V-FITC/propidium iodide staining based flow cytometry (reference value: 1.4%); type: functional
[3] = Half life in mouse plasma; type: ADME, cell-free
HeLa [4] = experiment: Induction of apoptosis in human HeLa cells assessed as late apoptotic cells at 1.25 uM after 48 hrs by annexin-V-FITC/propidium iodide staining based flow cytometry (reference value: 9.3%); type: functional
HeLa [5] = experiment: Induction of apoptosis in human HeLa cells assessed as viable cells at 1.25 uM after 48 hrs by annexin-V-FITC/propidium iodide staining based flow cytometry (reference value: 88.6%); type: functional
[6] = Half life in mouse microsomes; type: ADME, Microsome
HeLa [7] = experiment: Induction of apoptosis in human HeLa cells assessed as early apoptotic cells at 1.25 uM after 48 hrs by annexin-V-FITC/propidium iodide staining based flow cytometry (reference value: 1.4%); type: functional
HeLa [8] = experiment: Induction of apoptosis in human HeLa cells assessed as late apoptotic cells at 2.5 uM after 48 hrs by annexin-V-FITC/propidium iodide staining based flow cytometry (reference value: 9.3%); type: functional
[9] = Half life in artificial intestinal fluid; type: ADME
HeLa [10] = experiment: Induction of apoptosis in human HeLa cells assessed as viable cells at 2.5 uM after 48 hrs by annexin-V-FITC/propidium iodide staining based flow cytometry (reference value: 88.6%); type: functional
HeLa [11] = experiment: Induction of apoptosis in human HeLa cells assessed as late apoptotic cells at 5 uM after 48 hrs by annexin-V-FITC/propidium iodide staining based flow cytometry (reference value: 9.3%); type: functional
HeLa [12] = experiment: Induction of apoptosis in human HeLa cells assessed as early apoptotic cells at 2.5 uM after 48 hrs by annexin-V-FITC/propidium iodide staining based flow cytometry (reference value: 1.4%); type: functional
HeLa [13] = experiment: Induction of apoptosis in human HeLa cells assessed as necrotic cells at 5 uM after 48 hrs by annexin-V-FITC/propidium iodide staining based flow cytometry (reference value: 0.693%); type: functional
HeLa [14] = experiment: Induction of apoptosis in human HeLa cells assessed as necrotic cells at 2.5 uM after 48 hrs by annexin-V-FITC/propidium iodide staining based flow cytometry (reference value: 0.693%); type: functional
HeLa [15] = experiment: Induction of apoptosis in human HeLa cells assessed as viable cells at 5 uM after 48 hrs by annexin-V-FITC/propidium iodide staining based flow cytometry (reference value: 88.6%); type: functional
A549 [16] = experiment: Antiproliferative activity against human A549 cells assessed as reduction in cell viability after 48 hrs by MTT assay; type: functional, cell-based; settings: A549, 48 h
HeLa [17] = experiment: Antiproliferative activity against human HeLa cells assessed as reduction in cell viability after 48 hrs by MTT assay; type: functional, cell-based
HeLa [18] = experiment: Antiproliferative activity against human HeLa cells assessed as reduction in cell viability after 72 hrs by MTT assay; type: functional, cell-based
HepG2 [19] = experiment: Antiproliferative activity against human HepG2 cells assessed as reduction in cell viability after 24 hrs by MTT assay; type: functional, cell-based; settings: HepG2, 24 h
HepG2 [20] = experiment: Antiproliferative activity against human HepG2 cells assessed as reduction in cell viability after 72 hrs by MTT assay; type: functional, cell-based; settings: HepG2, 72 h
MCF7 [21] = experiment: Antiproliferative activity against human MCF7 cells assessed as reduction in cell viability after 48 hrs by MTT assay; type: functional, cell-based; settings: MCF7, 48 h
[22] = Elimination half life in po dosed patient plasma by HPLC/MS analysis; type: ADME, organism-based; settings: human, read-out: beta t1/2 (converted)
[23] = target: T1, Protein deacetylase HDAC6 (Homo sapiens) (UniProt Q9UBN7); experiment: Inhibition of HDAC6 in human A549 cells assessed as increase in acetylated tubulin expression at 5 uM incubated for 12 hrs by DAPI staining based immunofluorescence microscopy; type: cell-based
T1 sequence (whole entry): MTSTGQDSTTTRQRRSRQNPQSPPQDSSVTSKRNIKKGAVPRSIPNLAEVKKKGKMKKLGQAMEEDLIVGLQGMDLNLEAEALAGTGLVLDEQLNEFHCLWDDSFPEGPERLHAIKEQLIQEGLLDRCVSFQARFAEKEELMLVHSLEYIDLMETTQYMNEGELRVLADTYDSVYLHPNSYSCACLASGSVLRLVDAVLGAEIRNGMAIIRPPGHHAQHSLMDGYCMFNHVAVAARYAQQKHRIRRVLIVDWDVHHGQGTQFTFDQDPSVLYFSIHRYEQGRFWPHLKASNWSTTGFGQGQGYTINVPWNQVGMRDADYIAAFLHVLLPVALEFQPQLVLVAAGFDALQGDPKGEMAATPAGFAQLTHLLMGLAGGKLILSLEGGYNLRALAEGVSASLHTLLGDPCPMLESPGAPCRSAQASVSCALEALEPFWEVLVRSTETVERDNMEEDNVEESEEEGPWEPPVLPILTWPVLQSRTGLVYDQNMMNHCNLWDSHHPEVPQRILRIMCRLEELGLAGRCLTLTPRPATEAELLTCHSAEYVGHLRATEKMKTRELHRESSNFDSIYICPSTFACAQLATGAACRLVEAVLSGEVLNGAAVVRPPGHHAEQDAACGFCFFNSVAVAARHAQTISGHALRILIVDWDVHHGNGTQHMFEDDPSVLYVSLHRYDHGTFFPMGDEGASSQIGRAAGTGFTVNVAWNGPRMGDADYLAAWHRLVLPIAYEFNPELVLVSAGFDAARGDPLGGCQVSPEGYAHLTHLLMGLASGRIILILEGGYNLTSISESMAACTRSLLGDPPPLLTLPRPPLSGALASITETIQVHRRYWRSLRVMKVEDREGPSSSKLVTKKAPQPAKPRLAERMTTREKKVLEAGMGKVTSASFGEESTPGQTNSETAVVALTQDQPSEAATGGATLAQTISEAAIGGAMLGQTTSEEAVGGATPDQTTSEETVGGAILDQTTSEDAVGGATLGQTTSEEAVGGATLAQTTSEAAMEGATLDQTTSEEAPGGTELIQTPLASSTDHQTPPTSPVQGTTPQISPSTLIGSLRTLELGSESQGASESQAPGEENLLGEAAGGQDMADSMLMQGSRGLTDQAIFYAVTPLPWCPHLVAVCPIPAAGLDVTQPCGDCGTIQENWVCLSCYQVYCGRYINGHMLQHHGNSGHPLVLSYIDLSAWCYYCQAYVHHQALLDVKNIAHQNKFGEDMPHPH

HepG2 [24] = experiment: Antiproliferative activity against human HepG2 cells assessed as reduction in cell viability after 48 hrs by MTT assay; type: functional, cell-based; settings: HepG2, 48 h
MCF7 [25] = experiment: Antiproliferative activity against human MCF7 cells assessed as reduction in cell viability after 72 hrs by MTT assay; type: functional, cell-based; settings: MCF7, 72 h
[26] = Antiproliferative activity against human HCT116 cells assessed as reduction in cell viability after 48 hrs by MTT assay; type: functional, cell-based; settings: HCT-116, 48 h
A549 [27] = experiment: Antiproliferative activity against human A549 cells assessed as reduction in cell viability after 72 hrs by MTT assay; type: functional, cell-based; settings: A549, 72 h
MCF7 [28] = experiment: Antiproliferative activity against human MCF7 cells assessed as reduction in cell viability after 24 hrs by MTT assay; type: functional, cell-based; settings: MCF7, 24 h
[29] = Antiproliferative activity against human HCT116 cells assessed as reduction in cell viability after 72 hrs by MTT assay; type: functional, cell-based; settings: HCT-116, 72 h
[30] = Half life in artificial gastric fluid; type: ADME
HeLa [31] = experiment: Antiproliferative activity against human HeLa cells assessed as reduction in cell viability after 24 hrs by MTT assay; type: functional, cell-based
[32] = Antiproliferative activity against human HCT116 cells assessed as reduction in cell viability after 24 hrs by MTT assay; type: functional, cell-based; settings: HCT-116, 24 h
A549 [33] = experiment: Antiproliferative activity against human A549 cells assessed as reduction in cell viability after 24 hrs by MTT assay; type: functional, cell-based; settings: A549, 24 h
[34] = Homo sapiens, HeLa, 48 h, read-out: Activity

O=C(CCCCCCC(=O)Nc1ccccc1)NO [VORINOSTAT]
Activity (HeLa [1]): 0.654%
Activity (HeLa [2]): 7.84%
half-life [3]: 3 h
Activity (HeLa [4]): 10.2%
Activity (HeLa [5]): 85.1%
half-life [6]: 1.33 h
Activity (HeLa [7]): 4.1%
Activity (HeLa [8]): 15.1%
half-life [9]: > 24 h
Activity (HeLa [10]): 77.4%
Activity (HeLa [11]): 7.6%
Activity (HeLa [12]): 6.56%
Activity (HeLa [13]): 0.61%
Activity (HeLa [14]): 0.957%
Activity (HeLa [15]): 83.9%

Nc1ccccc1NC(=O)c1ccc(CNc2nccc(-c3cccnc3)n2)cc1 [MOCETINOSTAT]
Activity (HeLa [1]): 0.78%
Activity (HeLa [2]): 12.5%
half-life [3]: 10 h
Activity (HeLa [4]): 8.23%
viability at 1.25 µM (HeLa [5]; [34]): 87.1%
IC50 (A549 [16]): 14.6 µM
half-life [6]: 2.62 h
Activity (HeLa [7]): 3.9%
IC50 (HeLa [17]): 3.32 µM
Activity (HeLa [8]): 5.98%
half-life [9]: > 24 h
viability at 2.5 µM (HeLa [10]; [34]): 84.5%
IC50 (HeLa [18]): 3.42 µM
Activity (HeLa [11]): 11.6%
IC50 (HepG2 [19]): 5.79 µM
IC50 (HepG2 [20]): 4.25 µM
IC50 (MCF7 [21]): 56.8 µM
half-life [22]: 9 h
Activity (HeLa [12]): 9.13%
inhibition [23]: inactive
Activity (HeLa [13]): 1.33%
Activity (HeLa [14]): 0.437%
IC50 (HepG2 [24]): 4.05 µM
IC50 (MCF7 [25]): 2.49 µM
IC50 [26]: 1.24 µM
IC50 (A549 [27]): 11.9 µM
IC50 (MCF7 [28]): 84.2 µM
IC50 [29]: 3.51 µM
half-life [30]: > 24 h
IC50 (HeLa [31]): 43.8 µM
IC50 [32]: 29.7 µM
viability at 5 µM (HeLa [15]; [34]): 74.6%
IC50 (A549 [33]): 59.9 µM

Reference: ChEMBL document CHEMBL3751819, “Navigating into the chemical space between MGCD0103 and SAHA: novel histone deacetylase inhibitors as a promising lead” (Medchemcomm, 2015)
